The structures appear in SMILES notation. pEC50: −log10 of the molar value. Read-outs that look alike come from different tables or passages of the source.

The assay deals with T1, human M2 receptor (Homo sapiens, UniProt P08172).
T1 sequence (P08172 1-466): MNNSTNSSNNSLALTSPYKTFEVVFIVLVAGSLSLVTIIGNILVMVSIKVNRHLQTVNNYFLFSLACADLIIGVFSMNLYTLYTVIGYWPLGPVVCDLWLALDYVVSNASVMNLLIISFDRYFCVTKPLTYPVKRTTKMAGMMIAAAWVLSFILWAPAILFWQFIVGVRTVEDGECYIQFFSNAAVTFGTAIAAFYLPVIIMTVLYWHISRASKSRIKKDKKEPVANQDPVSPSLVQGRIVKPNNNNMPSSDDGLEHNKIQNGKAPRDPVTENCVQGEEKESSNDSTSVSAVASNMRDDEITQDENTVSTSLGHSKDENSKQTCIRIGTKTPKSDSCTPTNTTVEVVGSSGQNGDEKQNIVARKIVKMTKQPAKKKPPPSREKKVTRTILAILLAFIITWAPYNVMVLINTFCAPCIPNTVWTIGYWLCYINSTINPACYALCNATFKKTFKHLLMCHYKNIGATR
The note with it: for Emax: read-out: Efficiency, boosting of the acetylcholine effect at EC20 acetylcholine concentration; for Efficiency: boosting of the acetylcholine effect at EC20 acetylcholine concentration.

Setting [1] is: Receptor activity EC50, allosteric potency at EC20 acetylcholine, M2-GIRK1/4 reporter cells, in some cases mean of two or more determinations.
The mark [2] stands for this setting: Receptor activity EC50, M2-GIRK1/4 activation test, acetylcholine at EC20, allosteric potency, in some cases mean values from two or more determinations.

As usually defined, the pEC50 is −log10 of the EC50, conventionally taken in molar units. Lower therefore signals a high EC50. In the case of `CC(NC(=O)c1cn(-c2ccc(F)cc2F)c2nc(N3C[C@@H](O)CC3=O)ccc2c1=O)C(F)(F)C(F)(F)F` (single isomer, unassigned) [Example 623], the pEC50 under setting [1] is 7.17. The Emax (M2-GIRK1/4 reporter cells) was found to be 97%.

In the case of `CC(NC(=O)c1cn(-c2ccc(F)cc2F)c2nc(N3C[C@@H](O)CC3=O)ccc2c1=O)C(F)(F)C(F)(F)F` (single isomer, unassigned) [Example 624], the pEC50 under setting [1] is 6.85. The same molecule yielded an Efficiency (M2-GIRK1/4 reporter cells) of 96.5%.

On to `O=C(NC12CC(C1)C2)c1cn(-c2c(F)cc(F)cc2F)c2nc(N3CC(O)C4(CC4)C3)ccc2c1=O` (single isomer, unassigned) [Example 627, N-(Bicyclo[1.1.1]pent-1-yl)-7-[7-hydroxy-5-azaspiro[2.4]hept-5-yl]-4-oxo-1-(2,4,6-trifluorophenyl)-1,4-dihydro-1,8-naphthyridine-3-carboxamide], for which, under setting [1], the pEC50 is 6.85. Also, under “M2-GIRK1/4 reporter cells”, the Emax was 83.5%.

With `O=C(NC12CC(C1)C2)c1cn(-c2c(F)cc(F)cc2F)c2nc(N3CC(O)C4(CC4)C3)ccc2c1=O` (single isomer, unassigned) [Example 628, N-(Bicyclo[1.1.1]pent-1-yl)-7-[7-hydroxy-5-azaspiro[2.4]hept-5-yl]-4-oxo-1-(2,4,6-trifluorophenyl)-1,4-dihydro-1,8-naphthyridine-3-carboxamide], the pEC50 under setting [1] is 7.49.

In the case of `CC1CC(=O)N(c2ccc3c(=O)c(C(=O)NC(C4CC4)C(F)(F)F)cn(-c4c(F)cc(F)cc4F)c3n2)C1` (stereo in doubt) [Example 420, N-[(1R)-1-cyclopropyl-2,2,2-trifluoroethyl]-7-[4-methyl-2-oxopyrrolidin-1-yl]-4-oxo-1-(2,4,6-trifluorophenyl)-1,4-dihydro-1,8-naphthyridine-3-carboxamide], the pEC50 under setting [1] is 7.80. Also, under “M2-GIRK1/4 reporter cells”, the Emax stood at 97.5%.

Turning to `CC1CN(c2ccc3c(=O)c(C(=O)N[C@@H](C4CC4)C(F)(F)F)cn(-c4c(F)cc(F)cc4F)c3n2)C(=O)O1` (stereo in doubt) [Example 445, N-[(1 S)-1-Cyclopropyl-2,2,2-trifluoroethyl]-7-[(5S)-5-methyl-2-oxo-1,3-oxazolidin-3-yl]-4-oxo-1-(2,4,6-trifluorophenyl)-1,4-dihydro-1,8-naphthyridine-3-carboxamide], the pEC50 under setting [1] was 7.02. In addition, the Efficiency (M2-GIRK1/4 reporter cells) was determined as 97.5%.

Under setting [1], `CC(C)C(C)NC(=O)c1cn(-c2c(F)cc(F)cc2F)c2nc(N3C[C@@H](O)CC3=O)ccc2c1=O` (stereo in doubt) [Example 482, 7-[(4S)-4-Hydroxy-2-oxopyrrolidin-1-yl]-N-[(2R)-3-methylbutan-2-yl]-4-oxo-1-(2,4,6-trifluorophenyl)-1,4-dihydro-1,8-naphthyridine-3-carboxamide] showed a negative-log EC50 (pEC50) of 7.89. Besides, the Emax (M2-GIRK1/4 reporter cells) stood at 98.5%.

In turn, `O=C(NC12CC3CC(CC(C3)C1)C2)c1cn(-c2ccc(F)cc2F)c2nc(N3CCCC(F)(F)C3)ccc2c1=O` [Example 1, 1-(2,4-Difluorophenyl)-7-(3,3-difluoropiperidin-1-yl)-4-oxo-N-(tricyclo[3.3.1.1^3,7]dec-1-yl)-1,4-dihydro-1,8-naphthyridine-3-carboxamide] had a negative logarithm of the EC50 (pEC50) under setting [2] of 7.85.

In the case of `O=C(NC12CC3CC(CC(C3)C1)C2)c1cn(-c2ccc(F)cc2F)c2nc(N3CCC(F)CC3)ccc2c1=O` [Example 5, 1-(2,4-Difluorophenyl)-7-(4-fluoropiperidin-1-yl)-4-oxo-N-(tricyclo[3.3.1.1^3,7]dec-1-yl)-1,4-dihydro-1,8-naphthyridine-3-carboxamide], under setting [2], the negative logarithm of the EC50 (pEC50) was 7.51.

In the case of `O=C(NC12CC3CC(CC(C3)C1)C2)c1cn(-c2ccc(F)cc2F)c2nc(N3CCCCC3)ccc2c1=O` [Example 8, 1-(2,4-Difluorophenyl)-4-oxo-7-(piperidin-1-yl)-N-(tricyclo[3.3.1.1^3,7]dec-1-yl)-1,4-dihydro-1,8-naphthyridine-3-carboxamide], the pEC50 under setting [2] was 7.42.

Regarding `NC(=O)N1CCN(c2ccc3c(=O)c(C(=O)NC45CC6CC(CC(C6)C4)C5)cn(-c4ccc(F)cc4F)c3n2)CC1` [Example 12, 7-(4-Carbamoylpiperazin-1-yl)-1-(2,4-difluorophenyl)-4-oxo-N-(tricyclo[3.3.1.1^3,7]dec-1-yl)-1,4-dihydro-1,8-naphthyridine-3-carboxamide], the pEC50 under setting [2] is 7.19.

For the molecule `O=C(NC12CC3CC(CC(C3)C1)C2)c1cn(-c2ccc(F)cc2F)c2nc(N3CCC(F)(CO)CC3)ccc2c1=O` [Example 16, 1-(2,4-Difluorophenyl)-7-[4-fluoro-4-(hydroxymethyl)piperidin-1-yl]-4-oxo-N-(tricyclo[3.3.1.1^3,7]dec-1-yl)-1,4-dihydro-1,8-naphthyridine-3-carboxamide], the pEC50 under setting [2] was 7.05.

With `O=C(NC12CC3CC(CC(C3)C1)C2)c1cn(-c2ccc(F)cc2F)c2nc(N3CCCC(CCO)C3)ccc2c1=O` (stereo not shown) [Example 17, 1-(2,4-Difluorophenyl)-7-[3-(2-hydroxyethyl)piperidin-1-yl]-4-oxo-N-(tricyclo[3.3.1.1^3,7]dec-1-yl)-1,4-dihydro-1,8-naphthyridine-3-carboxamide], the pEC50 under setting [2] was 6.80.

For the molecule `O=C1CN(c2ccc3c(=O)c(C(=O)NC45CC6CC(CC(C6)C4)C5)cn(-c4ccc(F)cc4F)c3n2)CCN1` [Example 18, 1-(2,4-Difluorophenyl)-4-oxo-7-(3-oxopiperazin-1-yl)-N-(tricyclo[3.3.1.1^3,7]dec-1-yl)-1,4-dihydro-1,8-naphthyridine-3-carboxamide], the pEC50 under setting [2] was 6.93.

Under setting [2], `CC(C)(NC(=O)c1cn(-c2ccc(F)cc2F)c2nc(N3CC[C@@H](O)C3)ccc2c1=O)c1c(F)cccc1F` [Example 21, 1-(2,4-Difluorophenyl)-N-[2-(2,6-difluorophenyl)propan-2-yl]-7-[(3R)-3-hydroxypyrrolidin-1-yl]-4-oxo-1,4-dihydro-1,8-naphthyridine-3-carboxamide] had a pEC50 of 6.84.

As to `CO[C@@H]1CCN(c2ccc3c(=O)c(C(=O)NC(C)(C)c4c(F)cccc4F)cn(-c4ccc(F)cc4F)c3n2)C1` [Example 22, 1-(2,4-Difluorophenyl)-N-[2-(2,6-difluorophenyl)propan-2-yl]-7-[(3R)-3-methoxypyrrolidin-1-yl]-4-oxo-1,4-dihydro-1,8-naphthyridine-3-carboxamide], under setting [2], the pEC50 is 6.88.

For the molecule `CC[C@@H](NC(=O)c1cn(-c2ccc(F)cc2F)c2nc(N3CC(F)C3)ccc2c1=O)C(F)(F)F` [Example 32, 1-(2,4-Difluorophenyl)-7-(3-fluoroazetidin-1-yl)-4-oxo-N-[(2R)-1,1,1-trifluorobutan-2-yl]-1,4-dihydro-1,8-naphthyridine-3-carboxamide], the negative-log EC50 (pEC50) under setting [2] was 6.76.

For the molecule `CN(C)c1ccc2c(=O)c(C(=O)NC34CC5CC(CC(F)(C5)C3)C4)cn(-c3ccc(F)cc3F)c2n1` [Example 37, 1-(2,4-Difluorophenyl)-7-(dimethylamino)-N-(3-fluorotricyclo[3.3.1.1^3,7]dec-1-yl)-4-oxo-1,4-dihydro-1,8-naphthyridine-3-carboxamide], the negative-log EC50 (pEC50) under setting [2] is 7.64.

The molecule `CN(C)c1ccc2c(=O)c(C(=O)NC34CC5CC(C3)C(F)(F)C(C5)C4)cn(-c3ccc(F)cc3Cl)c2n1` [Example 40, 1-(2-Chloro-4-fluorophenyl)-N-(4,4-difluorotricyclo[3.3.1.1^3,7]dec-1-yl)-7-(dimethylamino)-4-oxo-1,4-dihydro-1,8-naphthyridine-3-carboxamide] had a negative logarithm of the EC50 (pEC50) under setting [2] of 6.97.

Source of the values: patent US20190367516A1 (Bayer Pharma Aktiengesellschaft, priority 2015, published 2019).
